Measurements reported in the SangsterLogP compilation.

| logP | Structure (SMILES) |
| --- | --- |
| -0.27 | O=C(O)CCCO/N=C(/c1ccccc1)c1cccnn1 |
| -0.33 | O=C(O)CCCCO/N=C(/c1ccccc1)c1ccnnc1 |
| -0.23 | O=C(O)CCCCO/N=C(/c1ccccc1)c1cnccn1 |

The next lines start with the compound.

| Structure (SMILES) | logP |
| --- | --- |
| O=C(O)CCCCCO/N=C(/c1ccccc1)c1ccnnc1 | 0.1 |
| O=C(O)CCCCCON=C(c1ccccc1)c1cnccn1 | 0.23 |
| O=C(O)CCCCO/N=C(/c1ccccc1)c1cccnn1 | 0 |
| O=C(O)CCCO/N=C(\c1ccccc1)c1ccnnc1 | -0.4 |
| O=C(O)CCCO/N=C(/c1ccccc1)c1cnccn1 | -0.53 |
| O=C(O)CCCCCO/N=C(/c1ccccc1)c1cccnn1 | -0.01 |
